# Assay results as given in PubChem BioAssay AID2060358 (Molecular Pharmacology Branch, DTP, NCI, 2025).
# Activity calls are given as the source filed them. Rule for the calls: active = viability on the fitted dose curve at most 10% of control; inactive = the rest.
# System: 254851-301-R-J1-PDC spheroids, viability % test/control
# Experiment: Anticancer human tumor 254851-301-R-J1-PDC patient-derived colon carcinoma cell line growth inhibition [TAK]
# Details: spheroids with HUVEC and MSC; for IC50: curve of first compound; for viability, T/C: stronger effect = lower value
# Outline: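 Drug combinations, each paired with TAK-243 or ipatasertib, were tested on multi-cell spheroids of 60% malignant cells, 25% HUVEC and 15% hMSC. Top concentrations were at or near the clinical Cmax (10 microM if undetermined), decreasing by half-log; viability is given as % test/control.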
# 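Throughout, for IC50: spheroids exposed to drugs for seven days before viability readout.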
# 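Throughout, for viability, T/C: spheroids exposed to drugs for seven days before viability readout; 100% = DMSO vehicle control viability.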
smiles,measurement,setting,value
CC(=O)Nc1cccc(-n2c(=O)n(C3CC3)c(=O)c3c(Nc4ccc(I)cc4F)n(C)c(=O)c(C)c32)c1 + CC(C)NCC(C(=O)N1CCN(c2ncnc3c2C(C)CC3O)CC1)c1ccc(Cl)cc1,IC50,second compound 0.3 µM,17.6 nM
same,IC50,second compound 0.949 µM,17.6 nM
same,IC50,second compound 3 µM,18.6 nM
same,IC50,second compound 9.49 µM,17.3 nM
same,IC50,second compound 30 µM,12.5 nM
same,"viability, T/C","second compound 0.3 µM, first compound 94.9 pM",115%
same,"viability, T/C","second compound 0.3 µM, first compound 0.0003 µM",109%
same,"viability, T/C","second compound 0.3 µM, first compound 0.000949 µM",108%
same,"viability, T/C","second compound 0.3 µM, first compound 0.003 µM",116%
same,"viability, T/C","second compound 0.3 µM, first compound 0.00949 µM",95.7%
same,"viability, T/C","second compound 0.3 µM, first compound 0.03 µM",11%
same,"viability, T/C","second compound 0.949 µM, first compound 94.9 pM",111%
same,"viability, T/C","second compound 0.949 µM, first compound 0.0003 µM",110%
same,"viability, T/C","second compound 0.949 µM, first compound 0.000949 µM",111%
same,"viability, T/C","second compound 0.949 µM, first compound 0.003 µM",102%
same,"viability, T/C","second compound 0.949 µM, first compound 0.00949 µM",88.5%
same,"viability, T/C","second compound 0.949 µM, first compound 0.03 µM",17.4%
same,"viability, T/C","second compound 3 µM, first compound 94.9 pM",106%
same,"viability, T/C","second compound 3 µM, first compound 0.0003 µM",107%
same,"viability, T/C","second compound 3 µM, first compound 0.000949 µM",110%
same,"viability, T/C","second compound 3 µM, first compound 0.003 µM",116%
same,outcome,"second compound 3 µM, first compound 0.00949 µM",inactive
same,"viability, T/C","second compound 3 µM, first compound 0.03 µM",9.28%
same,"viability, T/C","second compound 9.49 µM, first compound 94.9 pM",94.7%
same,"viability, T/C","second compound 9.49 µM, first compound 0.0003 µM",114%
same,"viability, T/C","second compound 9.49 µM, first compound 0.000949 µM",106%
same,"viability, T/C","second compound 9.49 µM, first compound 0.003 µM",108%
same,"viability, T/C","second compound 9.49 µM, first compound 0.00949 µM",97.7%
same,"viability, T/C","second compound 9.49 µM, first compound 0.03 µM",6.45%
same,"viability, T/C","second compound 30 µM, first compound 94.9 pM",81.1%
same,"viability, T/C","second compound 30 µM, first compound 0.0003 µM",96.6%
same,"viability, T/C","second compound 30 µM, first compound 0.000949 µM",97.3%
same,"viability, T/C","second compound 30 µM, first compound 0.003 µM",81.4%
same,"viability, T/C","second compound 30 µM, first compound 0.00949 µM",65.3%
same,"viability, T/C","second compound 30 µM, first compound 0.03 µM",2.95%
CC(C)CC(NC(=O)CNC(=O)c1cc(Cl)ccc1Cl)B1OC(=O)CC(CC(=O)O)(C(=O)O)O1 (stereo not given) + CC(C)NCC(C(=O)N1CCN(c2ncnc3c2C(C)CC3O)CC1)c1ccc(Cl)cc1,IC50,second compound 0.3 µM,53.7 nM
same,IC50,second compound 0.949 µM,49.7 nM
same,IC50,second compound 3 µM,49.2 nM
same,IC50,second compound 9.49 µM,56.9 nM
same,IC50,second compound 30 µM,57.6 nM
same,"viability, T/C","second compound 0.3 µM, first compound 0.000316 µM",103%
same,"viability, T/C","second compound 0.3 µM, first compound 0.001 µM",100%
same,"viability, T/C","second compound 0.3 µM, first compound 0.00316 µM",95.8%
same,"viability, T/C","second compound 0.3 µM, first compound 0.01 µM",101%
same,"viability, T/C","second compound 0.3 µM, first compound 0.0316 µM",73.7%
same,"viability, T/C","second compound 0.3 µM, first compound 0.1 µM",22.2%
same,"viability, T/C","second compound 0.949 µM, first compound 0.000316 µM",98.6%
same,"viability, T/C","second compound 0.949 µM, first compound 0.001 µM",102%
same,"viability, T/C","second compound 0.949 µM, first compound 0.00316 µM",95.3%
same,"viability, T/C","second compound 0.949 µM, first compound 0.01 µM",95%
same,"viability, T/C","second compound 0.949 µM, first compound 0.0316 µM",67.3%
same,"viability, T/C","second compound 0.949 µM, first compound 0.1 µM",23.2%
same,"viability, T/C","second compound 3 µM, first compound 0.000316 µM",95.8%
same,"viability, T/C","second compound 3 µM, first compound 0.001 µM",107%
same,"viability, T/C","second compound 3 µM, first compound 0.00316 µM",98.9%
same,"viability, T/C","second compound 3 µM, first compound 0.01 µM",102%
same,"viability, T/C","second compound 3 µM, first compound 0.0316 µM",70.2%
same,"viability, T/C","second compound 3 µM, first compound 0.1 µM",17.9%
same,"viability, T/C","second compound 9.49 µM, first compound 0.000316 µM",96.8%
same,"viability, T/C","second compound 9.49 µM, first compound 0.001 µM",101%
same,"viability, T/C","second compound 9.49 µM, first compound 0.00316 µM",97.7%
same,"viability, T/C","second compound 9.49 µM, first compound 0.01 µM",95.1%
same,"viability, T/C","second compound 9.49 µM, first compound 0.0316 µM",76.6%
same,"viability, T/C","second compound 9.49 µM, first compound 0.1 µM",24.5%
same,"viability, T/C","second compound 30 µM, first compound 0.000316 µM",78.2%
same,"viability, T/C","second compound 30 µM, first compound 0.001 µM",63%
same,"viability, T/C","second compound 30 µM, first compound 0.00316 µM",81.4%
same,"viability, T/C","second compound 30 µM, first compound 0.01 µM",86%
same,"viability, T/C","second compound 30 µM, first compound 0.0316 µM",80%
same,"viability, T/C","second compound 30 µM, first compound 0.1 µM",24.4%
